Test results taken from patent publication US9078894B2 (AB SCIENCE, priority 2011, dated 2015).
Several values for one entry are separate records, joined by “and”; a condition that tells them apart may be missing. Equal values may be shown once. One block for each compound: values may come before it.

Legend:
[1] = tested on: asthmatic patients with severe persistent asthma; assay: Phase 2a 16-week double-blind placebo-controlled study in severe persistent asthma; format: in vivo, human; design: Oral corticosteroids absolute change (W 4 to W 16), Mean ± SD / Oral corticosteroids absolute change (W 4 to W 16), Median: unit not given here
Excerpt: The trial consisted of three phases: during the first 4 weeks, the corticosteroid dose remained constant; during the following 8 weeks, oral corticosteroid doses were decreased each week according to a predefined schedule, until weaning or an asthma exacerbation occurred; the final 4 weeks were a stabilization period for observation. Asthma exacerbation was defined as a deterioration of asthma symptoms requiring an emergency visit, a hospitalization or an increase in oral corticosteroid treatment. In case an asthma exacerbation occurred, oral corticosteroid therapy was resumed at the level prior to this occurrence following the acute treatment phase. Patients underwent a visit every 2 weeks during the first 4 weeks, then a weekly visit for the following 12 weeks. A possible treatment extension was part of the study protocol in case of clinical benefit, based on the investigators assessment. In these extension phases the follow-up of patients took place every 4 weeks during the first 3 months and then every 12 weeks until the end of the study. The primary objective was to measure the reduction of oral corticosteroids doses after 16 weeks of treatment. Therefore, efficacy and safety measurements were assessed at enrolment of each patient in the study prior to the administration of the investigational compound and then at week 2, and weekly from weeks 4 through to 16. The secondary objectives were to monitor the change from baseline in symptomatic scores (asthma control questionnaire, ACQ), the FEV1 and rescue medication intake when necessary. Patients, 18 to 75 years of age with a diagnosis of asthma for ≧3 years and severe uncontrolled disease for ≧1 year, and followed up at the same centre for ≧1 year, were eligible for this study. […] Exclusion criteria included: (a) any other significant respiratory or cardiac disease; (b) worsening of asthma symptoms requiring treatment with additional oral corticosteroids within 4 weeks of screening; (c) any other infections; (d) a history of acute infection requiring hospitalization or treatment with antibiotics within 2 weeks of screening; (e) rare variants of severe asthma such as Churg-Strauss syndrome or allergic bronchopulmonary aspergillosis; […] A treatment wash-out period of 4 months at time of enrolment was required for prior use of omalizumab.

[2] = tested on: experimentally asthmatic cats; assay: Experimental feline asthma, randomized blinded placebo-controlled study; format: in vivo, cat
Excerpt: Twelve experimentally asthmatic cats were enrolled in a randomized, blinded, placebo-controlled study. […] Exclusion criteria were evidence of cardiac insufficiency, evidence of gastric bleeding, major surgery within 2 weeks of treatment initiation, life expectancy less than 3 months, lactating or pregnant cats or cats intended for breeding, previous history of kidney disease or previous known episodes of proteinuria, administration of food listed on the “recall list” issued by FDA or vaccination within 4 weeks prior to enrollment, and any concurrent medical illness. […] Bronchoalveolar lavage fluid (BALF) eosinophil percentages and airway hyper-reactivity, determined by changes in ventilator mechanics in response to methacholine (MCh) challenge were evaluated at baseline, weeks 4, 8 and 12. Results of the MCh challenge were reported as the effective concentration of MCh that increased baseline airway resistance by 200% (EC200Raw) and the end-inspiratory pressure after a breath hold (plateau pressure, Pplat). Treatment was interrupted or discontinued if predetermined adverse events were noted. Cats naïve to Bermuda grass allergen (BGA) confirmed by intradermal skin testing (IDST) and with normal BALF underwent allergen sensitization. IDST was re-evaluated to confirm allergen sensitization. Next, allergen challenge of BGA as an aerosol in awake, spontaneously breathing cats was performed. Allergen solution (100 μg of BGA dissolved in PBS) was aerosolized into a clear chamber using an air compressor attached to a nebulizer. Seven challenges were administered over the next 2 weeks, at which time BALF was repeated to confirm development of eosinophilic airway inflammation. Bronchoalveolar lavage fluid was collected in a blind fashion at baseline and weeks 4, 8, and 12 of the study. Collection of BALF was obtained after Mch challenge and under the same anesthesia. A total nucleated cell count was performed on each BALF sample using a coulter counter. Cytological evaluation and differential cell counts were performed on samples prepared by cytocentrifugation. Differential cell counts (200 nucleated cells per slide) on modified Wright's stained slides were performed, and cell percentages were reported.

[3] = tested on: Balb/c male mice sensitized with ovalbumine; assay: Murine model of allergic airway inflammation (ovalbumine); format: in vivo, mouse; conditions: oral, twice daily, 25 and 100 mg/kg/day; sensitized and challenged animals
Experimental: Balb/c male mice aged 9 weeks were sensitized with ovalbumine (50 μg) adsorbed with Al(OH)3 diluted in physiological saline (0.9% NaCl) by intraperitoneal injection on day 1 and 7. Sensitization was followed by intranasal challenges with ovalbumine (10 μg) diluted in 0.9% NaCl every day from day 18 to day 21. Non sensitized control animals received intraperitoneal injections of vehicle alone followed by intranasal challenges with NaCl 0.9% alone at the same time than the sensitized animals. […] On day 22, airway hyper responsiveness (AHR) was measured by the enhanced pause (PenH) in the whole body plethysmograph. The bronchoconstrictive response was evaluated as the response to a concentration-dependent methacholine (MCh) aerosol exposure. Mice were first exposed to a saline aerosol then to an aerosol generated from increasing concentrations of methacholine (0.05, 0.1, 0.2, 0.3, and 0.4M). Infiltration of inflammatory cells was measured immediately after assessment of AHR to methacholine via collection of bronchoalveolar lavage (BAL) fluid by lavage of the whole lung with physiological saline containing 1.6 mM EDTA. Cells were counted in the BAL and cell types identified by morphological criteria after Hemacolor staining.

[4] = tested on: human cord blood mast cells; conditions: cited from earlier work
patients [5] = conditions: estimated exposure of about 57,300 patients, June 2003 through December 2006; cited from earlier work
patients [6] = conditions: 20 of 4127 patients; cited from earlier work
[7] = ITT population, 3.0 mg/kg/day (N = 12)
[8] = ITT population, 4.5 mg/kg/day (N = 11)
[9] = ITT population, 6.0 mg/kg/day (N = 10)
[10] = ITT population, all masitinib (N = 33)
[11] = subpopulation initially treated with >15 mg prednisone daily, 3.0 mg/kg/day (N = 9)
[12] = subpopulation initially treated with >15 mg prednisone daily, 4.5 mg/kg/day (N = 4)
[13] = subpopulation initially treated with >15 mg prednisone daily, 6.0 mg/kg/day (N = 6)
[14] = subpopulation initially treated with >15 mg prednisone daily, all masitinib (N = 19)

proteinuria, cats affected ([2]; 50 mg/day, p=0.002 vs placebo): every cat
permanent discontinuation due to proteinuria ([2]; at or after week 4): four
temporary drug interruption followed by dose reduction due to proteinuria ([2]; at or after week 4): two
Compound: Cc1ccc(NC(=O)c2ccc(CN3CCN(C)CC3)cc2)cc1Nc1nc(-c2cccnc2)cs1 [masitinib, 4-(4-methylpiperazin-1-ylmethyl)-N-[4-methyl-3-(4-pyridin-3ylthiazol-2-ylamino)phenyl]benzamide]
ACQ score change ([1]; 3.0 mg/kg dose): 0.56 units
ACQ score change ([1]; 4.5 mg/kg dose): 1.57 units
ACQ score change ([1]; 6 mg/kg dose): 0.89 units
improvement of ACQ score at W16 ([1]; ITT analysis, all masitinib-treated patients, p<0.001): 0.99 unit
Oral corticosteroids absolute change (W 4 to W 16), Mean ± SD [1, 7]: −10.7 ± 19.2
Oral corticosteroids absolute change (W 4 to W 16), Median [1, 7]: −14.0
Patients weaned at W 16, number (percent) [1, 7]: 5 (41.7%)
Oral corticosteroids absolute change (W 4 to W 16), Mean ± SD [1, 8]: 0.2 ± 26.8
Oral corticosteroids absolute change (W 4 to W 16), Median [1, 8]: −7.5
Patients weaned at W 16, number (percent) [1, 8]: 2 (25.0%)
Oral corticosteroids absolute change (W 4 to W 16), Mean ± SD [1, 9]: −12.2 ± 18.5
Oral corticosteroids absolute change (W 4 to W 16), Median [1, 9]: −11.3
Patients weaned at W 16, number (percent) [1, 9]: 3 (37.5%)
Oral corticosteroids absolute change (W 4 to W 16), Mean ± SD [1, 10]: −8.0 ± 21.3
Oral corticosteroids absolute change (W 4 to W 16), Median [1, 10]: −12.3
Patients weaned at W 16, number (percent) [1, 10]: 10 (35.7%)
masitinib-related AE: diarrhea ([1]; all masitinib-treated patients): 18.2%
masitinib-related AE: fatigue ([1]; all masitinib-treated patients): 12.1%
masitinib-related AE: nausea ([1]; all masitinib-treated patients): 30.3%
masitinib-related AE: peripheral edema ([1]; all masitinib-treated patients): 18.2%
masitinib-related AE: pruritus ([1]; all masitinib-treated patients): 12.1%
masitinib-related AE: skin rash ([1]; all masitinib-treated patients): 30.3%
masitinib-related AE: vomiting ([1]; all masitinib-treated patients): 12.1%
patients who experienced at least one AE ([1]; all patients treated with masitinib, regardless of dose): 93.9%
change in lung function ([1]; in this trial): no significant change in lung function
asthma exacerbation rate in patients experiencing at least one exacerbation, decrease ([1]; masitinib group, all doses merged): 42.4%
rate of asthma exacerbation compared to placebo ([1]; masitinib-treated patients): significantly reduced
percent reduction in oral corticosteroid doses ([1]; patients receiving >15 mg equivalent prednisone per day at baseline, all masitinib-treated patients): 52±53%
patients weaned off oral corticosteroids at W16, number ([1]; patients receiving >15 mg equivalent prednisone per day at baseline, masitinib treatment groups): six
Oral corticosteroids absolute change (W 4 to W 16), Mean ± SD [1, 11]: −17 ± 9
Oral corticosteroids absolute change (W 4 to W 16), Median [1, 11]: −20
Oral corticosteroids percent change (W 4 to W 16), Mean ± SD [1, 11]: −68 ± 38%
Oral corticosteroids percent change (W 4 to W 16), Median [1, 11]: −81%
Patients weaned at W 16, number (percent) [1, 11]: 4 (44.4%)
Oral corticosteroids absolute change (W 4 to W 16), Mean ± SD [1, 12]: −7 ± 8
Oral corticosteroids absolute change (W 4 to W 16), Median [1, 12]: −5
Oral corticosteroids percent change (W 4 to W 16), Mean ± SD [1, 12]: −33 ± 42%
Oral corticosteroids percent change (W 4 to W 16), Median [1, 12]: −19%
Patients weaned at W 16, number (percent) [1, 12]: 0 (0.0%)
Oral corticosteroids absolute change (W 4 to W 16), Mean ± SD [1, 13]: −14 ± 22
Oral corticosteroids absolute change (W 4 to W 16), Median [1, 13]: −16
Oral corticosteroids percent change (W 4 to W 16), Mean ± SD [1, 13]: −40 ± 78%
Oral corticosteroids percent change (W 4 to W 16), Median [1, 13]: −69%
Patients weaned at W 16, number (percent) [1, 13]: 2 (33.3%)
Oral corticosteroids absolute change (W 4 to W 16), Mean ± SD [1, 14]: −14 ± 14
Oral corticosteroids absolute change (W 4 to W 16), Median [1, 14]: −15
Oral corticosteroids percent change (W 4 to W 16), Mean ± SD [1, 14]: −52 ± 53%
Oral corticosteroids percent change (W 4 to W 16), Median [1, 14]: −65%
group mean±SD % BALF eosinophils ([2]; after 4 weeks of therapy, 50 mg orally once daily, p=0.023 vs placebo): 7±9%
Pplat with MCh challenge ([2]; after 4 weeks of therapy, no significant increase in masitinib-treated cats (p=0.32)): blunting of airflow limitation
group mean±SD EC200Raw, difference between groups ([2]; at baseline or after 4 weeks of therapy, MCh challenge): no significant difference
other side effects suspected of being associated with masitinib administration ([2]; infrequent overall, no specific therapy required): vomiting, diarrhea, Heinz bodies, hypoalbuminemia, hypoglobulinemia, hypercholesterolemia and ALT increase
masitinib-treated cats with % BALF eosinophils <17% ([2]; week 4): five of six
% BALF eosinophils, values of individual cats ([2]; week 4, the five masitinib-treated cats below 17%): 1% (2×) and 2% and 3.5% and 15%
change in Pplat with MCh challenge versus saline aerosol, compared between treatment groups ([2]; week 4 compared to baseline): significant (p=0.033) decrease
Penh (airway hyper responsiveness) [3]: a decrease of Penh
number of eosinophils in the bronchoalveolar lavage fluid [3]: marked decrease
FcεRI-mediated degranulation [4]: inhibition of FcεRI-mediated degranulation

Compound: omalizumab: an anti-immunoglobulin E antibody (anti-IgE) approved for severe allergic asthma
frequency of anaphylaxis attributed to omalizumab use (patients [5]): at least 0.2%
malignant neoplasms observed in omalizumab-treated patients (patients [6]): 0.5%
